# Calls of active or inactive are those of the source. No cut-off for these calls is given here.
# System: Feline coronavirus
# Assay: Antiviral activity against feline coronavirus
# Assay type: functional, organism-based
# Conditions: not given
row,SMILES,Activity
1,O=C(NCCCCCCCCCCNC(=O)c1cc(O)c(O)c(O)c1)c1cc(O)c(O)c(O)c1,inactive
2,O=C(NCCCCCCCCCCNC(=O)c1ccc(O)c(O)c1O)c1ccc(O)c(O)c1O,inactive
3,O=C(NCCCCCCCCCCCCNC(=O)c1cccc(O)c1O)c1cccc(O)c1O,inactive

# System: Chikungunya virus
# Assay: Antiviral activity against chikungunya virus
# Assay type: functional
# Conditions: not given
row,SMILES,Activity
1,O=C(NCCCCCCCCCCNC(=O)c1cc(O)c(O)c(O)c1)c1cc(O)c(O)c(O)c1,inactive
2,O=C(NCCCCCCCCCCNC(=O)c1ccc(O)c(O)c1O)c1ccc(O)c(O)c1O,inactive
3,O=C(NCCCCCCCCCCCCNC(=O)c1cccc(O)c1O)c1cccc(O)c1O,inactive

# System: Human respirovirus 3
# Assay: Antiviral activity against human parainfluenza virus 3
# Assay type: functional, organism-based
# Conditions: not given
row,SMILES,Activity
1,O=C(NCCCCCCCCCCNC(=O)c1cc(O)c(O)c(O)c1)c1cc(O)c(O)c(O)c1,inactive
2,O=C(NCCCCCCCCCCNC(=O)c1ccc(O)c(O)c1O)c1ccc(O)c(O)c1O,inactive
3,O=C(NCCCCCCCCCCCCNC(=O)c1cccc(O)c1O)c1cccc(O)c1O,inactive

# System: Human immunodeficiency virus 2
# Assay: Antiviral activity against HIV2 ROD infected in human CEM cells assessed as reduction in virus-induced cytopathicity after 4 to 5 days by microscopy based syncytium cell formation assay
# Assay type: functional, organism-based, ISOLATE ROD, CCRF-CEM
# Conditions: Human immunodeficiency virus 2, ISOLATE ROD, CCRF-CEM; read-out: EC50
row,SMILES,EC50
1,O=C(NCCCCCCCCCCNC(=O)c1cc(O)c(O)c(O)c1)c1cc(O)c(O)c(O)c1,> 50 µM
2,O=C(NCCCCCCCCCCNC(=O)c1ccc(O)c(O)c1O)c1ccc(O)c(O)c1O,> 50 µM
3,O=C(NCCCCCCCCCCCCNC(=O)c1cccc(O)c1O)c1cccc(O)c1O,> 2 µM

# System: Coxsackievirus B4
# Assay: Antiviral activity against human coxsackievirus B4
# Assay type: functional, organism-based
# Conditions: not given
row,SMILES,Activity
1,O=C(NCCCCCCCCCCNC(=O)c1cc(O)c(O)c(O)c1)c1cc(O)c(O)c(O)c1,inactive
2,O=C(NCCCCCCCCCCNC(=O)c1ccc(O)c(O)c1O)c1ccc(O)c(O)c1O,inactive
3,O=C(NCCCCCCCCCCCCNC(=O)c1cccc(O)c1O)c1cccc(O)c1O,inactive

# System: Vesicular stomatitis virus
# Assay: Antiviral activity against vesicular stomatitis virus
# Assay type: functional, organism-based
# Conditions: not given
row,SMILES,Activity
1,O=C(NCCCCCCCCCCNC(=O)c1cc(O)c(O)c(O)c1)c1cc(O)c(O)c(O)c1,inactive
2,O=C(NCCCCCCCCCCNC(=O)c1ccc(O)c(O)c1O)c1ccc(O)c(O)c1O,inactive
3,O=C(NCCCCCCCCCCCCNC(=O)c1cccc(O)c1O)c1cccc(O)c1O,inactive

# System: not listed separately
# Assay: Cytotoxicity against human CEM cells assessed as inhibition of cell proliferation
# Assay type: cell-based
# Conditions: CEM cells (CCRF-CEM)
row,SMILES,CC50
1,O=C(NCCCCCCCCCCNC(=O)c1cc(O)c(O)c(O)c1)c1cc(O)c(O)c(O)c1,86 µM
2,O=C(NCCCCCCCCCCNC(=O)c1ccc(O)c(O)c1O)c1ccc(O)c(O)c1O,100 µM
3,O=C(NCCCCCCCCCCCCNC(=O)c1cccc(O)c1O)c1cccc(O)c1O,4.8 µM

# System: Felid alphaherpesvirus 1
# Assay: Antiviral activity against feline herpesvirus
# Assay type: functional, organism-based
# Conditions: not given
row,SMILES,Activity
1,O=C(NCCCCCCCCCCNC(=O)c1cc(O)c(O)c(O)c1)c1cc(O)c(O)c(O)c1,inactive
2,O=C(NCCCCCCCCCCNC(=O)c1ccc(O)c(O)c1O)c1ccc(O)c(O)c1O,inactive
3,O=C(NCCCCCCCCCCCCNC(=O)c1cccc(O)c1O)c1cccc(O)c1O,inactive

# System: Influenza A virus H3N2
# Assay: Antiviral activity against influenza A virus H3N2
# Assay type: functional, organism-based
# Conditions: not given
row,SMILES,Activity
1,O=C(NCCCCCCCCCCNC(=O)c1cc(O)c(O)c(O)c1)c1cc(O)c(O)c(O)c1,inactive
2,O=C(NCCCCCCCCCCNC(=O)c1ccc(O)c(O)c1O)c1ccc(O)c(O)c1O,inactive
3,O=C(NCCCCCCCCCCCCNC(=O)c1cccc(O)c1O)c1cccc(O)c1O,inactive

# System: Hepatitis C virus
# Assay: Antiviral activity against HCV genotype 1b I389luc-ubi-neo/NS3-3'/5.1 replicons infected in human Huh5-2 HCV subgenomic replicon-containing cells assessed as reduction in virus replication after 3 days by luciferase reporter gene assay
# Assay type: functional, Hepacivirus hominis
# Conditions: Hepatitis C virus, genotype 1b, Huh-5-2, 72 h
row,SMILES,EC90
1,O=C(NCCCCCCCCCCCCNC(=O)c1cccc(O)c1O)c1cccc(O)c1O,4.8 µM

# Same assay, conditions: Hepatitis C virus, genotype 1b, Huh-5-2, 72 h; read-out: EC50
row,SMILES,EC50
1,O=C(NCCCCCCCCCCNC(=O)c1cc(O)c(O)c(O)c1)c1cc(O)c(O)c(O)c1,20 µM
2,O=C(NCCCCCCCCCCNC(=O)c1ccc(O)c(O)c1O)c1ccc(O)c(O)c1O,11 µM
3,O=C(NCCCCCCCCCCCCNC(=O)c1cccc(O)c1O)c1cccc(O)c1O,2 µM

# System: Influenza A virus
# Assay: Antiviral activity against influenza A virus (H1N1)
# Assay type: functional, organism-based
# Conditions: not given
row,SMILES,Activity
1,O=C(NCCCCCCCCCCNC(=O)c1cc(O)c(O)c(O)c1)c1cc(O)c(O)c(O)c1,inactive
2,O=C(NCCCCCCCCCCNC(=O)c1ccc(O)c(O)c1O)c1ccc(O)c(O)c1O,inactive
3,O=C(NCCCCCCCCCCCCNC(=O)c1cccc(O)c1O)c1cccc(O)c1O,inactive

# System: Human immunodeficiency virus 1
# Assay: Antiviral activity against HIV1 3B infected in human CEM cells assessed as reduction in virus-induced cytopathicity after 4 to 5 days by microscopy based syncytium cell formation assay
# Assay type: functional, organism-based, CCRF-CEM
# Conditions: Human immunodeficiency virus 1, 3B, CCRF-CEM; read-out: EC50
row,SMILES,EC50
1,O=C(NCCCCCCCCCCNC(=O)c1cc(O)c(O)c(O)c1)c1cc(O)c(O)c(O)c1,> 50 µM
2,O=C(NCCCCCCCCCCNC(=O)c1ccc(O)c(O)c1O)c1ccc(O)c(O)c1O,> 50 µM
3,O=C(NCCCCCCCCCCCCNC(=O)c1cccc(O)c1O)c1cccc(O)c1O,> 2 µM

# System: not listed separately
# Assay: Cytotoxicity against human Huh5-2 cells after 72 hrs by MTS assay
# Assay type: cell-based, Huh-5-2
# Conditions: not given
row,SMILES,CC50 at 72 h
1,O=C(NCCCCCCCCCCNC(=O)c1cc(O)c(O)c(O)c1)c1cc(O)c(O)c(O)c1,47 µM
2,O=C(NCCCCCCCCCCNC(=O)c1ccc(O)c(O)c1O)c1ccc(O)c(O)c1O,> 100 µM
3,O=C(NCCCCCCCCCCCCNC(=O)c1cccc(O)c1O)c1cccc(O)c1O,108 µM

# System: Respiratory syncytial virus
# Assay: Antiviral activity against RSV
# Assay type: functional, organism-based
# Conditions: not given
row,SMILES,Activity
1,O=C(NCCCCCCCCCCNC(=O)c1cc(O)c(O)c(O)c1)c1cc(O)c(O)c(O)c1,inactive
2,O=C(NCCCCCCCCCCNC(=O)c1ccc(O)c(O)c1O)c1ccc(O)c(O)c1O,inactive
3,O=C(NCCCCCCCCCCCCNC(=O)c1cccc(O)c1O)c1cccc(O)c1O,inactive

# System: Vaccinia virus
# Assay: Antiviral activity against vaccinia virus
# Assay type: functional, organism-based
# Conditions: Orthopoxvirus vaccinia
row,SMILES,Activity
1,O=C(NCCCCCCCCCCNC(=O)c1cc(O)c(O)c(O)c1)c1cc(O)c(O)c(O)c1,inactive
2,O=C(NCCCCCCCCCCNC(=O)c1ccc(O)c(O)c1O)c1ccc(O)c(O)c1O,inactive
3,O=C(NCCCCCCCCCCCCNC(=O)c1cccc(O)c1O)c1cccc(O)c1O,inactive

# System: Punta Toro virus
# Assay: Antiviral activity against punta toro virus
# Assay type: functional, organism-based
# Conditions: not given
row,SMILES,Activity
1,O=C(NCCCCCCCCCCNC(=O)c1cc(O)c(O)c(O)c1)c1cc(O)c(O)c(O)c1,inactive
2,O=C(NCCCCCCCCCCNC(=O)c1ccc(O)c(O)c1O)c1ccc(O)c(O)c1O,inactive
3,O=C(NCCCCCCCCCCCCNC(=O)c1cccc(O)c1O)c1cccc(O)c1O,inactive

# System: Reovirus sp.
# Assay: Antiviral activity against reovirus
# Assay type: functional, organism-based
# Conditions: not given
row,SMILES,Activity
1,O=C(NCCCCCCCCCCNC(=O)c1cc(O)c(O)c(O)c1)c1cc(O)c(O)c(O)c1,inactive
2,O=C(NCCCCCCCCCCNC(=O)c1ccc(O)c(O)c1O)c1ccc(O)c(O)c1O,inactive
3,O=C(NCCCCCCCCCCCCNC(=O)c1cccc(O)c1O)c1cccc(O)c1O,inactive

# System: Sindbis virus
# Assay: Antiviral activity against sindbis virus
# Assay type: functional, organism-based
# Conditions: not given
row,SMILES,Activity
1,O=C(NCCCCCCCCCCNC(=O)c1cc(O)c(O)c(O)c1)c1cc(O)c(O)c(O)c1,inactive
2,O=C(NCCCCCCCCCCNC(=O)c1ccc(O)c(O)c1O)c1ccc(O)c(O)c1O,inactive
3,O=C(NCCCCCCCCCCCCNC(=O)c1cccc(O)c1O)c1cccc(O)c1O,inactive

# Reference: ChEMBL document CHEMBL3407452, “Linear and branched alkyl-esters and amides of gallic acid and other (mono-, di- and tri-) hydroxy benzoyl derivatives as promising anti-HCV inhibitors” (Eur J Med Chem, 2015)
